Measured values from patent publication US20040223983A1, “Pharmaceutical preparations, use of these preparations and process for increasing the biovailability of pharmaceutical substances to be administered perorally” (priority 2002, published 2004).
Converted amounts (≈) assume the structure as drawn. “And” between values parts separate entries of the source, which are not always exact repeats. Equal entries are not always repeated. Where two headings read alike, the source gives them in different places.

Tests used:
[1] = biological target: human, intestinal P-gp- transporters (Homo sapiens, UniProt P08183); assay: P-gp- transporter test (calcein AM, MATU cells); conditions: ratio of fluorescence intensity test solution to blank
Chain of human, intestinal P-gp- transporters (P08183 whole entry): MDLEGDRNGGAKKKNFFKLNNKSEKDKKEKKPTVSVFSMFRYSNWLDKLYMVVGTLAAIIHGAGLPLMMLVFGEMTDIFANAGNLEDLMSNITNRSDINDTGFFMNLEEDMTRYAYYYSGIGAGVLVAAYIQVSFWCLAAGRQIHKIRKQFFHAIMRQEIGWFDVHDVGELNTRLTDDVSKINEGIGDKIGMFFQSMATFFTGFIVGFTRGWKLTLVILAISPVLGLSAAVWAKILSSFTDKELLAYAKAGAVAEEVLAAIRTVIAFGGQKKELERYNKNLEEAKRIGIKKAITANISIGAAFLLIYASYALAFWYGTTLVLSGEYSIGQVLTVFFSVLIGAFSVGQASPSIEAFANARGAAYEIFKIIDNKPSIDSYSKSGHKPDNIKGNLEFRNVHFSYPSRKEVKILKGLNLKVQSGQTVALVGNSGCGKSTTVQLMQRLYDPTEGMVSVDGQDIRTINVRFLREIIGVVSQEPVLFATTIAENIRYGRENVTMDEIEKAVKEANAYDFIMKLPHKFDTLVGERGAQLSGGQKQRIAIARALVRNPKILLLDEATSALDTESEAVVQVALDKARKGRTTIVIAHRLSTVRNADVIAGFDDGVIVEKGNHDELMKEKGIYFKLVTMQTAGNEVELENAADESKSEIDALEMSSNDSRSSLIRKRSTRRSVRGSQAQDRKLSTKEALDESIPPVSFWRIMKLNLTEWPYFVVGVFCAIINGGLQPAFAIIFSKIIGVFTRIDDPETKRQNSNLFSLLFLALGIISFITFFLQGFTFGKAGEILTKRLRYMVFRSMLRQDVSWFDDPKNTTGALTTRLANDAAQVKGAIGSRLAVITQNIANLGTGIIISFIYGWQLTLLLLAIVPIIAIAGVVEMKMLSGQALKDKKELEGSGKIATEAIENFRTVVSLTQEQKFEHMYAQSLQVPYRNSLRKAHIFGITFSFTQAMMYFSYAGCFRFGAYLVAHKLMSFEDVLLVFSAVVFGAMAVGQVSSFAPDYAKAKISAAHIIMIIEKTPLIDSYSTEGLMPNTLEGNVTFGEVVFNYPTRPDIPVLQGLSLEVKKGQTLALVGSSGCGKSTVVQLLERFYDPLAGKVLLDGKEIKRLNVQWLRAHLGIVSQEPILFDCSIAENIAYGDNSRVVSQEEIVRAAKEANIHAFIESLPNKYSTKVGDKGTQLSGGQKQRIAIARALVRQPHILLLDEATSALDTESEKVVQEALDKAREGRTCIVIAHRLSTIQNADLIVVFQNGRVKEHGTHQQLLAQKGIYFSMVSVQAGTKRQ
Excerpt: In this test, the activity to inhibit the transporters is characterized via ratio (R) that indicates the ratio of the fluorescence intensity of the test solution to the fluorescence intensity of the blank and is directly proportional to inhibiting the P-gp- transporters. Fluorescence intensity test solution corresponds to fluorescence intensity, measured at 485/535 nm (excitation or emission), of cells that contain test solution and calcein AM working solution.
For this purpose, a suspension of human breast cancer cell lines, MATU-cell lines (Max-Dellbrück-Centrum (MDC)-Berlin-Buch; 40,000 cells/well/200 μl) is first added to a microtiter plate (Greiner black 96 plates, clear bottom, sterile). […]
Then, the addition of calcein AM working solution (20 μl/well) to all wells is carried out, i.e., with and without test solution. […] After incubation is completed, the fluorescence is measured in a plate-fluorescence reader (Fluostar®, B&L Systems, Maarssen) at 485/535 nm (excitation or emission).
The following ratio: ratio (R) of the fluorescence intensity of the test solution to the fluorescence intensity of the blank is determined.
The fluorescence intensity of the test solution corresponds to the fluorescence intensity, measured at 485/535 nm (excitation or emission), of the cells that contain the test solution and the calcein AM working solution.

[2] = biological target: T1, 17β-HSD2 (Homo sapiens, UniProt P37059); assay: Metabolic stability, in vitro 17β-HSD2 test on intestinal microsomes; format: in vitro ADME; conditions: % of starting value of AE2, n=2
T1 construct: Intestinal microsomes (InVitro Technologies); protein content: 24 mg/ml; tissue InVitro Technologies; host or cells: intestinal microsomes
T1 sequence (P37059 1-387): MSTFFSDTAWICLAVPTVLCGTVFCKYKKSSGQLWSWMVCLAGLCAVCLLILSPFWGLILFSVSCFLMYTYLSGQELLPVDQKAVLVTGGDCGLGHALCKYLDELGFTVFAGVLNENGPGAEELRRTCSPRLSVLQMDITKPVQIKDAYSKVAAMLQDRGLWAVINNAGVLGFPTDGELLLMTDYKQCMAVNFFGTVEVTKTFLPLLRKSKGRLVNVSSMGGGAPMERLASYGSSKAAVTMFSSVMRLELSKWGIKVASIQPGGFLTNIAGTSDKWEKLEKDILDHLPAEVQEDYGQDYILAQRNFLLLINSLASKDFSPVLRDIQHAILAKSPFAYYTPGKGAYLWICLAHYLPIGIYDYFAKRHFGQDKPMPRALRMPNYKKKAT
Excerpt: Pharmaceutical preparations according to the invention that contain steroids that have a secondary, beta-position hydroxyl group in 17-position of the sterane skeleton inhibit the 17β-HSD 2, so that less 17-keto-biotransformation product is produced. The inhibition potential is directly proportional to the mass proportion of the formulation according to the invention. […] Example 5; FIG. 3). It can be seen from this that formulations according to the invention are suitable to inhibit 17β-HSD 2.
17β-HSD2 test on microsomes of intestinal origin. Metabolic stability of 0.3 μM of AE2 in an intestinal microsome suspension and production of 17-ketone metabolites after 30 minutes based on the concentration (m/v) of a formulation according to the invention that contains Cremophor®EL and Transcutol®P, Smix 9:1, 20% (m/m), Miglyol®812.
A formulation according to the invention, produced analogously to Example 1a) and containing Cremophor®EL and Transcutol®P, Smix 9:1, 20% (m/m) Miglyol®812, is tested for its property to inhibit 17β-HSD2 in intestinal microsomes. 17β-HSD2 mediates the intestinal enzymatic dehydrogenation of an OH group in 17-position of the sterane skeleton to form a ketone group. An inhibition of the 17β-HSD2 is measured via a test substance AE2, which is the substrate of this enzyme, and is biotransformed into a 17-keto product. The ratio of the AE2 concentration and the 17-ketone-biotransformation product is determined at specific times (0, 10, 20, 30, 45 and 60 minutes) in each case for the starting-AE2 concentration in % (m/m).
For these tests, the following materials are used:
Na-Phosphate buffer: 100 mmol of Na2HPO4×2H2O and 100 mmol of NaH2PO4×H2O
Test substance solution of AE2: AE2 50 μmol in MeOH (in the test batch 0.3 μmol)
Formulation batches of the above-mentioned formulation according to the invention (% m/v): 0%, 0.00441%, 0.0147%, 0.0441%, 0.147% and 0.441% formulation in Na-phosphate buffer (in the test batch 0%, 0.003%, 0.01%, 0.03%, […] and 0.3% formulation).
Cofactor solution: 2 ml of glucose-6-phosphate (160 mmol)/MgCl2 (80 mmol)-mixture is added to 400 μl of a glucose-6-phosphate-dehydrogenase solution, then 15.6 mg of NADP and 13.4 mg of NAD are added.
Microsome solution: Intestinal microsomes (InVitro Technologies; protein content: 24 mg/ml; CYP450 content; 0.058 nmol/mg of protein) Thawed in a water bath at 37° C. (˜60 seconds) and diluted to a concentration of 5 mg/ml of protein with Na-phosphate buffer.
In each case, 170 μl/well of the formulation buffer and 5 μl/well of test substance solution of AE2 are introduced into the corresponding wells, whereby double values are set for each measuring time (0, 10, 20, 30, 45 and 60 minutes).
In each case, 250 μl of ice-cold MeOH is added at the 0-minute values. Immediately after, 25 μl of microsome solution and 50 μl of cofactor solution are added to all wells. The samples of the 0-minute values are stored without incubation at ˜−20° C. for about 24 hours. The other samples are incubated in each case for 10, 20, 30, 45 and 60 minutes at 37° C., and the dehydrogenation reaction is stopped after these times by the addition of 250 μl of ice-cold MeOH in each case. The samples are stored for about 24 hours before they are measured by HPLC at ˜−20° C. and they are centrifuged before HPLC analysis at 3000 rpm, whereby the supernatant is measured.

[3] = Lipophilicity (log P); format: physicochemical
[4] = biological target: T2, Recombinant, Human Cytochrome P450 2C9 Isoenzyme (Homo sapiens, UniProt P11712)
T2 sequence (P11712 whole entry): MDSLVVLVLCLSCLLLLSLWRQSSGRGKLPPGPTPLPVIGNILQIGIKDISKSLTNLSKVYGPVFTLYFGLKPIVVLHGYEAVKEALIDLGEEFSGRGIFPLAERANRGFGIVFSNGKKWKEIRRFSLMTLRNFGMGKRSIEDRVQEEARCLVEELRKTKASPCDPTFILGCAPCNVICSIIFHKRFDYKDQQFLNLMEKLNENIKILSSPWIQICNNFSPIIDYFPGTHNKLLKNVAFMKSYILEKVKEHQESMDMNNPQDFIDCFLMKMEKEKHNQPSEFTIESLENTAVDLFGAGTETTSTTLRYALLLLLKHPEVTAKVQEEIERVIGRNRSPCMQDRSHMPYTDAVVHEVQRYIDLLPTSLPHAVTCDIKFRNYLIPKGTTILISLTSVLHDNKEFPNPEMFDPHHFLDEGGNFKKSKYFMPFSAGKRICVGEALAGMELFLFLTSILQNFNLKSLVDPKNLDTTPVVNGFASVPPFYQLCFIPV
Method: (§1) In this connection, the inhibition of the enzymes is characterized via the concentration (IC50, μg/ml) of the adjuvants, in which 50% of the respective isoenzymes are inhibited.
(§2) Stock solutions of the respective test substances or test formulations are produced in acetonitrile and diluted with incubation buffer (3 mg/ml in 2% acetonitrile in the batch); additional concentrations are produced by serial dilution. Concentration of the acetonitrile is at most 2% in all batches.
(§3) The incubations are set in 96-hole plate format with 200 μl of total volume in double values. The background batch controls the fluorescence of the batch without enzymes and formulations according to the invention, and the inherent fluorescence of the substances is determined in the buffer dilution. […]
(§4) The batches are started by adding the enzyme/substrate mixture, shaken for 30 or 45 minutes in an incubator at 37° C. and then interrupted with 50 μl of stop solution. The plates are briefly shaken, and the fluorescence intensity is measured in the plate-fluorescence reader at the wavelengths for excitation or emission.
(§5) The development of the fluorescent product forms the basis for the calculation. […] The IC50 value is calculated from the concentration-dependent inhibition.

[5] = biological target: T3, Recombinant, Human Cytochrome P450 3A4 Isoenzyme (Homo sapiens, UniProt P08684)
T3 sequence (P08684 whole entry): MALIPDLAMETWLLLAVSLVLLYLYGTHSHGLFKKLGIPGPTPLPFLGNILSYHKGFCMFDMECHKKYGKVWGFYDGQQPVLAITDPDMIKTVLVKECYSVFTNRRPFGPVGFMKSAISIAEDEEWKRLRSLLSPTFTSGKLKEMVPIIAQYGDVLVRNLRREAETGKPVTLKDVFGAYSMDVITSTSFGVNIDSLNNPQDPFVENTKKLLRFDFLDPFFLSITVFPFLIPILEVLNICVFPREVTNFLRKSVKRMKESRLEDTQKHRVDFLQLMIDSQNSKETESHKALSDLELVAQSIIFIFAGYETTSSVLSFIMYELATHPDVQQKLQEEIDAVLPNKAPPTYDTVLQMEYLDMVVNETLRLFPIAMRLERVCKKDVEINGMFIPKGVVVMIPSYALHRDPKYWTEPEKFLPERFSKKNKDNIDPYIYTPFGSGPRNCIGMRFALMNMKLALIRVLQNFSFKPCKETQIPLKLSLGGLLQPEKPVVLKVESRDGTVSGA
Method: as §1, §2, §3, §4, §5

[6] = biological target: T4, Recombinant, Human Cytochrome P450 2C19 Isoenzyme (Homo sapiens, UniProt P33261); assay: Cytochrome P450 inhibition test, in vitro CYP test (2C19); format: biochemical
T4 construct: purchased Gentest Corp., Woburn, Mass., USA
T4 sequence (P33261 whole entry): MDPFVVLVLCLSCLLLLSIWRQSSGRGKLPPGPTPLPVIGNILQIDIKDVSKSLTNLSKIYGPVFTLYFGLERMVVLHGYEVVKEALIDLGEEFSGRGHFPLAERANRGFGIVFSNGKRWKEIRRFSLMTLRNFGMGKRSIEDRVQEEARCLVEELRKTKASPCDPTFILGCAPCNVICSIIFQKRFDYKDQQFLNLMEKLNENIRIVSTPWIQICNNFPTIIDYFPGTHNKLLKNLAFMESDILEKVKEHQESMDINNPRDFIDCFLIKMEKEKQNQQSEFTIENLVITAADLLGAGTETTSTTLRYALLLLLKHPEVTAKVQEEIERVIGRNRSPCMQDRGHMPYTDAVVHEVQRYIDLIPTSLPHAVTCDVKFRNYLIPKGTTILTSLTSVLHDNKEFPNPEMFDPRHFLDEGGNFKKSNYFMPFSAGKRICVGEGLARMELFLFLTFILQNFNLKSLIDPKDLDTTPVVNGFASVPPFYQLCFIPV
Method: as §1, §2
The incubations are set in 96-hole plate format with 200 μl of total volume in double values. The background batch controls the fluorescence of the batch without enzymes and formulations according to the invention, and the inherent fluorescence of the substances is determined in the buffer dilution. The preparation of the dilutions and the pipetting diagram corresponds to the original instructions of the manufacturer of the test kit (Gentest Corp., Woburn, Mass., USA).
as §4, §5

[7] = biological target: T3, Recombinant, Human Cytochrome P450 3A4 Isoenzyme; assay: Cytochrome P450 inhibition test, in vitro CYP test (3A4); conditions: substrate 7-BFC, 30 minutes, 37° C.
Method: as §1, §2, §3, §4, §5

[8] = biological target: T2, Recombinant, Human Cytochrome P450 2C9 Isoenzyme; assay: Cytochrome P450 inhibition test, in vitro CYP test (2C9); conditions: substrate 7-MFC, 45 minutes, 37° C.
Method: as §1, §2, §3, §4, §5

## CN(CCCCC[C@@H]1Cc2cc(O)ccc2[C@@H]2[C@@H]1[C@@H]1CC[C@H](O)[C@@]1(C)C[C@@H]2F)CCCSCCCC(F)(F)C(F)(F)F [AE1, 11β-fluoro-7α-{5-[N-methyl-N-3-(4,4,5,5,5-pentafluoropentylthio)-propylamino]-pentyl}-estra-1,3,5(10)-triene-3,17β-diol]
[1]; P-gp substrate
  R: 2.43

## CN(CCCCCCC(F)(F)C(F)(F)C(F)(F)C(F)(F)F)CCCCC[C@@H]1Cc2cc(O)ccc2[C@@H]2[C@@H]1[C@@H]1CC[C@H](O)[C@@]1(C)C[C@@H]2F [AE2, 11β-fluoro-7α-{5-[methyl-(7,7,8,8,9,9,10,10,10-nonafluorodecyl)amino]pentyl}estra-1,3,5(10)-triene-3,17β-diol]
[2]; 0.0% Cremophor EL/Miglyol 812/Transcutol P (72T/20T/8T) in test batch
  amount of genuine AE2 after 30 minutes in the microsome suspension: 64% and 66%
[2]; 0.003% Cremophor EL/Miglyol 812/Transcutol P (72T/20T/8T) in test batch
  amount of genuine AE2 after 30 minutes in the microsome suspension: 70% and 71%
[2]; 0.01% Cremophor EL/Miglyol 812/Transcutol P (72T/20T/8T) in test batch
  amount of genuine AE2 after 30 minutes in the microsome suspension: 75% and 76%
[2]; 0.03% Cremophor EL/Miglyol 812/Transcutol P (72T/20T/8T) in test batch
  amount of genuine AE2 after 30 minutes in the microsome suspension: 89% and 83%
[2]; 0.1% Cremophor EL/Miglyol 812/Transcutol P (72T/20T/8T) in test batch
  amount of genuine AE2 after 30 minutes in the microsome suspension: 109% and 114%
[2]; 0.3% Cremophor EL/Miglyol 812/Transcutol P (72T/20T/8T) in test batch
  amount of genuine AE2 after 30 minutes in the microsome suspension: 106% and 109%
[3]
  logP: 5.9

## CCCCCCCC/C=C\CCCCCCCC(=O)OCC [Ethyl oleate, Ethyl oleate (EO)]
[4]
  IC50 CYP-2C9: 195 µg/mL (≈ 0.628 mM)
[5]
  IC50 CYP-3A4: 117 µg/mL (≈ 0.377 mM)
[6]
  IC50 CYP-2C19: 325 µg/mL (≈ 1.05 mM)

## CCOCCOCCO [Transcutol ® P, Ethoxydiglycol]
[7]
  IC50 CYP-3A4: 755 µg/mL (≈ 5.63 mM)
[8]
  IC50 CYP-2C9: 1500 µg/mL (≈ 11.2 mM)
[1]; calcein AM, 485/535 nm, MATU cells, test solutions 0.3 to 33.3 μmol
  Maximum R-Value: 1.18
[6]
  IC50 CYP-2C19: 1400 µg/mL (≈ 10.4 mM)

## C8-C12 triglycerides (MCT) [Miglyol ® 812]
[6]
  IC50 CYP-2C19: 100 µg/mL

## PEG-40-hydrogenated castor oil [Cremophor ® RH40]
[6]
  IC50 CYP-2C19: 11 µg/mL

## PEG-400-monoricinoleate [Estax ® 54]
[6]
  IC50 CYP-2C19: 0.7 µg/mL

## Polyethylene glycol-35-castor oil [Cremophor ® EL]
[6]
  IC50 CYP-2C19: 10 µg/mL

## Polysorbate 80 [Tween ® 80]
[6]
  IC50 CYP-2C19: 8.4 µg/mL

## Refined castor oil (RIZ)
[6]
  IC50 CYP-2C19: >3000 µg/mL
